Structures can show the parent of a compound that is named as a salt.

Ten compounds from patent publication US12390437B2, “Itaconic acid derivatives and uses thereof intreating an inflammatory disease or a disease associated with an undesirable immune response” (Sitryx Therapeutics Limited, priority 2019, dated 2025) can be followed below.

Holding throughout (format): cell-based
Assay [1] relates to NQO1. Description: NQO1 enzyme activation assay as a readout of NRF2 activation in THP-1 cells. Particulars: Homo sapiens; for Emax: THP-1, percentage activation at top concentration, normalised to DMF (100%) and vehicle controls; for EC50: differentiated THP-1 cells, LPS, 48 hr. Here is the method:
NQO1 Enzyme Activation Assay as a Readout of NRF2 Activation in THP-1 Cellular Background
NAD(P)H dehydrogenase [quinone] […] Induction of this gene is concomitant with the inhibition of proinflammatory cytokine transcription and suppression of the inflammatory response (Kobayashi E. H. et al., 2016). The NQO1 enzyme activation activities of compounds of formula (IW-1) were determined using a cellular based NQO1 activation assay (Abcam). The NQO1 activation assay was run in differentiated THP-1 cells (a human monocyte-like cell line) as described below. All reagents described are from Sigma-Aldrich unless specified otherwise. Compounds were prepared as 10 mM DMSO stocks.
THP-1 cells were expanded as a suspension up to 80% confluence in appropriate growth medium. Cells were harvested, suspended, treated with phorbol 12-myristate 13-acetate (PMA) and plated according to the cell density required for each plate format over a 72 hr period (37° C./5% CO2).
Following 72 hrs of THP-1 cell incubation, cellular medium was removed and replaced with fresh media. Working concentrations of compounds were prepared and pre-incubated for 30 minutes (37° C./5% CO2). Compound treatment was then applied to the PMA treated THP-1 cell plate followed by LPS treatment. A ‘low’ (DMSO vehicle only) control and ‘high’ (designated concentration of dimethyl fumarate) was applied to each plate at the point of compound treatment. Cells were subsequently incubated for a 48 hr period (37° C./5% C02) after which all NQO1 assay reagents were prepared according to the manufacturer's instructions. NQO1 extraction buffer was applied to PBS washed THP-1 cells and incubated on ice for 15 minutes to prepare THP-1 lysates for the NQO1 activity assay. THP-1 lysates were diluted 1:5 with PBS and treated with a 1:1 volume of kit prepared NQO1 Reaction Buffer. Absorbance was subsequently measured kinetically on an appropriate reader over a 6 minute period.
For activation determination, the fold change in response per well was determined by first calculating the average NQO1 activation data for the vehicle control and then dividing the individual well response by the averaged NQO1 response for the vehicle control as shown below: Fold change=(Sample value)/MeanMin Where ‘Min’=vehicle control only
The relative 50% activation concentration (EC50) was determined from the resulting fold change response curve. The maximum efficacy (Emax) was reported as the percentage activation calculated at the top concentration of compound used in the titration applied. If a full curve was unattainable preventing a correct curve fit, the Emax value was extrapolated using existing curve data. All percentage activation data were normalised to the DMF and vehicle controls, meaning the Emax represents the percentage […] achieved by a compound at a particular concentration relative to that achieved by DMF (set as the ‘High’ control and therefore representative of 100% activation).

The test system of assay [2] is IL-1β cytokine output from isolated primary HMDMs. Description: Primary human monocyte derived macrophages (HMDMs) AlphaLISA IL-1β cytokine assay. Particulars: primary HMDMs (M-CSF 7 day), LPS 24 hr then Nigericin 1 hour. Here is the method: Measuring Inhibitory Effects on IL-1β Cytokine Output from Isolated Primary HMDMs
The cytokine inhibition profiles of compounds of formula (IW-1) were determined in a monocyte differentiated macrophage cell assay. All assays were performed in RPMI-1640 growth medium (Gibco), supplemented with heat-inactivated fetal bovine serum (FBS) and 1% penicillin-streptomycin unless specified otherwise. The IL-1β cytokine inhibition assay was run in a background of isolated primary HMDM cells as described below. All reagents described were from Sigma-Aldrich unless specified otherwise. Compounds were prepared as 100 mM DMSO stocks.
Primary peripheral blood mononuclear cells (PBMCs) were isolated from human whole blood. Following PBMC isolation, a CD14^+ monocyte isolation step was conducted whereby CD14^+ magnetic beads (Miltenyi Biotec) were incubated for 15 minutes with the PBMC suspension that was previously treated with ice cold T-cell isolation buffer (PBS, 0.5% BSA, 2 mM EDTA). Following bead incubation, the treated cell suspension was passed through a magnetic separation column designed to positively select for magnetically labelled cells. The isolated CD14^+ monocytes were subsequently plated at an appropriate cell density and treated fora 7 day period with M-CSF (BioLegend) to drive macrophage differentiation. Following the differentiation period, working concentrations of compounds were prepared separately in RPMI-1640 only growth medium and pre-incubated with the cells for 30 minutes (37° C./5% CO2). Following the 30 minute compound pre-incubation, primary HMDMs were treated with an appropriate concentration of LPS and subsequently incubated for a 24 hr period (37° C./5% CO2). Nigericin was added and incubated for 1 hour prior to harvesting primary HMDM supernatants and collected in separate polypropylene 96-well holding plates prior to commencing the AlphaLISA cytokine assay.
Reagents from the IL-1β commercial kit (Perkin Elmer) was prepared and run according to the manufacturer's instructions. Subsequently, fluorescence signal was measured in a microplate reader (EnVision® Multilabel Reader, Perkin Elmer).
(§1) Percentage inhibition was calculated per cytokine by normalising the sample data to the high and low controls used within each plate (+/−LPS respectively). Percentage inhibition was then plotted against compound concentration and the 50% inhibitory concentration (IC50) was determined from the resultant concentration-response curve.

The subject of assay [3] is IL-1β cytokine output from isolated primary human monocytes. In words: Primary human monocyte AlphaLISA IL-1β cytokine assay. Particulars: CD14+ primary human monocytes, LPS 24 hr then Nigericin 1 hour; for IC50: Monocyte. Here is the method:
Measuring Inhibitory Effects on IL-1β and IL-6 Cytokine Output from Isolated Primary Human Monocytes
The cytokine inhibition profiles of compounds of formula (IW-1) were determined in a CD14^+ isolated primary human monocyte cell assay. All assays were performed in RPMI-1640 growth medium (Gibco), supplemented with heat-inactivated fetal bovine serum (FBS) and 1% penicillin-streptomycin unless specified otherwise. The IL-1β and IL-6 cytokine inhibition assays were each run in a background of isolated primary human monocyte cells as described below. All reagents described were from Sigma-Aldrich unless specified otherwise. Compounds were prepared as 100 mM DMSO stocks.
Primary peripheral blood mononuclear cells (PBMCs) were isolated from human whole blood. Following PBMC isolation, a CD14^+ monocyte isolation step was conducted whereby CD14^+ magnetic beads (Miltenyi Biotec) were incubated for 15 minutes with the PBMC suspension that was previously treated with ice cold T-cell isolation buffer (PBS, 0.5% BSA, 2 mM EDTA). Following bead incubation, the treated cell suspension was passed through a magnetic separation column designed to positively select for magnetically labelled cells. The isolated CD14^+ monocytes were subsequently plated at the appropriate cell density for the assay, prior to compound treatment on the day of plating. Working concentrations of compounds were prepared separately in RPMI-1640 only growth medium and pre-incubated with the cells for 30 minutes (37° C./5% CO2). Following the 30 minute compound pre-incubation, primary monocytes were treated with an appropriate concentration of LPS and subsequently incubated for a 24 hr period (37° C./5% CO2). An appropriate final concentration of Nigericin was then dispensed into the primary monocyte plates and incubated for 1 hour (37° C./5% CO2) before monocyte supernatants were harvested and collected in separate polypropylene 96-well holding plates prior to commencing the AlphaLISA cytokine assay.
Reagents from each of the IL-1β and IL-6 commercial kits (Perkin Elmer) were prepared and run according to the manufacturer's instructions. Subsequently, fluorescence signal was measured in a microplate reader (EnVision® Multilabel Reader, Perkin Elmer).
as §1
In general terms: In Alpha technology, singlet oxygen from a donor bead excites a nearby acceptor bead.

For orientation: Emax means the maximal effect, on the per cent scale that the assay sets. The EC50 is the concentration giving half of the maximal effect. High values mean a less potent agent, low ones a more potent agent. The term IC50 denotes the concentration at which inhibition is half-maximal. Turning to `C=C(CC(=O)OCCCCCCCC)C(=O)OCCC#N` [Example 1, 1-(2-cyanoethyl) 4-octyl 2-methylenesuccinate], in assay [1], the Emax was 167% and the EC50 turned out to be 6.9 µM. Moreover, half-maximal inhibition in assay [2] (IC50) required 0.4 µM. Also, in assay [3], the IC50 was determined as 8.9 µM.
In turn, `C=C(CC(=O)O[C@H](C)CCCCCC)C(=O)OCC(=O)O` [Example 112, (R)-2-((2-methylene-4-(octan-2-yloxy)-4-oxobutanoyl)oxy)acetic acid] yielded an IC50 in assay [3] of 13.7 µM.
`C=C(CC(=O)O[C@H](C)CCCCCC)C(=O)OCCC(=O)O` [Example 88, (R)-3-((2-methylene-4-(octan-2-yloxy)-4-oxobutanoyl)oxy)propanoic acid] came in with a half-maximal inhibitory concentration (IC50) in assay [3] of 17.3 µM.
In assay [3], `C=C(CC(=O)OC1CCCCCCC1)C(=O)OCC(=O)O` [Example 90, 2-((4-(cyclooctyloxy)-2-methylene-4-oxobutanoyl)oxy)acetic acid] returned an IC50 of 81.3 µM.
In assay [1], `C=C(CC(=O)OCCCCCCCC)C(=O)OCCN1C(=O)CCC1=O` [Example 9, 1-(2-(2,5-dioxopyrrolidin-1-yl)ethyl) 4-octyl 2-methylenesuccinate] gave an Emax of 98% and an EC50 of 9.8 µM. For the same compound, the IC50 in assay [2] stood at 1.2 µM. In assay [3], the “IL-1β (IC50)” value is listed as “lower IC5s than dimethyl fumarate” and the IC50 worked out at 3.3 µM.
For `C=C(CC(=O)OCCCCCCCC)C(=O)OCCS(C)(=O)=O` [Example 2, 1-(2-(methylsulfonyl)ethyl) 4-octyl 2-methylenesuccinate], in that order: 213%, 4.6 µM, 0.3 µM, “lower IC5s than dimethyl fumarate” and 3.6 µM.
For `C=C(CC(=O)OCCCCCCCC)C(=O)OCCC(F)(F)F` [Example 3, 4-octyl 1-(3,3,3-trifluoropropyl) 2-methylenesuccinate] the same measures were 91%, 14.7 µM, 0.7 µM, “lower IC5s than dimethyl fumarate” and 3.9 µM.
In assay [1], `C=C(CC(=O)OC)C(=O)OC` [dimethyl itaconate, reference compound] had an Emax of 144% and an EC50 of 74.1 µM.
As for `COC(=O)/C=C/C(=O)OC` [dimethyl fumarate, reference compound], in assay [1], the Emax is 126% and it took 12.9 µM to reach a half-maximal effect (EC50). For the same compound, in assay [2], the IC50 is 2 µM. This compound came in with an IC50 in assay [3] of 8.5 µM.
Take `C=C(CC(=O)OCCCCCCCC)C(=O)OC1COC1` [Example 4, 4-octyl 1-(oxetan-3-yl) 2-methylenesuccinate]: in assay [1], the Emax came to 171% and the EC50 is 13.6 µM. The compound further registered an IC50 in assay [2] of 0.4 µM.
